Like-named read-outs stand apart in the source and are kept apart here.
Experiments:
Cyp-D Wild-type = Cyp-D Wild-type (Homo sapiens, UniProt P30405); experiment: Fluorescence titration: interaction with Cyclophilin D; type: binding
Procedure: Fluorescence Assay: Interaction with Cyclophilin D
Further fluorescence titration studies were undertaken to investigate the interaction of selected compounds of the invention with cyclophilin D. The assay was carried out in accordance with the method described in Maurice R. Eftink and Camillo A. Ghiron, [Fluorescence Quenching Studies with Proteins, Analytical Biochemistry 114, 199–227 (1981)].

Cyclophilin A = Cyclophilin A (Homo sapiens, UniProt P62937); experiment: Fluorescence assay: interaction with Cyclophilin A (dissociation constant); type: binding; details: 20° C., read-out: Kd determined by fluorescence assay
Procedure: In each case, the binding constant was measured by means of a fluorescence assay, for example as disclosed by Husi, H. and Zurini, M. G. M. [Comparative binding studies of cyclophilins to cyclosporin-A and derivatives by fluorescence measurements, Analytical Biochemistry, 1994, 222, 251–255].
Fluorescence Assay: Interaction with Cyclophilin A
The dissociation constant (Kd) for a number of ligands has been was obtained by fluorescence measurements. Cyclophilin A has only one tryptophan, located about 8 Å from the centre of the active site making a hydrogen bond to the inhibitor cyclosporin when bound. After each addition of ligand, the portion of the protein bound is proportional to the fractional fluorescence change. Measurements were carried out using a Perkin Elmer LS50B fluorescence spectrophotometer. The experiments took place at 20° C. Constant temperature was maintained within the cuvette by a temperature control. The protein solution was equilibrated until the signal was stable. A 1.4 ml fluorescence cuvette was used (Hellma 6140F). The excitation wavelength was 280 nm and the emission wavelength was varied from 330 to 345 nm according to protein and ligand. Emission and excitation slits varied from 2.5 to 10 nm, determined by experimental parameters.
At this point the concentration of the bound ligand equals the free protein. For each ligand concentration one fluorescence value was measured, and at the same concentrations a reference emission value was taken. The difference between the two values was calculated and a new corrected value was used to determine the Kd graphically.
Cyp-A solutions of […] in 50 mMTris, 100 mM NaCl, pH=7.4 were used. Protein concentration varied according to the ligand under test.

cyclophilin D = cyclophilin D (Homo sapiens, UniProt P30405); experiment: Rotamase activity (method of Kofron et al); type: biochemical
Procedure: PPIase activity is assessed with the α-chymotrypsin-coupled enzymatic assay [Determination of kinetic constants for peptidyl cis-trans isomerase by an improved spectrophotometric assay (1 991); Kofron J L, Kuzmic P, Kishore V, Colon-Bonilla E and Rich D., Biochemistry 30, 6127–6134]. α-Chymotrypsin selectively hydrolyses the C-terminal p-nitroanilide bond of the substrate in the trans X-Pro conformer only. This hydrolysis releases a chromophore 4-nitroaniline, the accumulation of which is recorded by measuring the absorbance at 400 nm as a function of time. […] Substrate (stock solution of 100 mM) was dissolved in LiCl/TFE. The experiment took place at 4° C. Constant temperature was maintained within the cuvette by a Peltier (PTP-1) temperature control unit. A mini magnetic stirring system (telemoduel from Variomag)) was used for mixing the solution in the cuvette after the addition of the substrate. A Perkin Elmer UV/VIS Lambda 20 spectrophotometer was used. […]

Cyp-A = Cyp-A (Homo sapiens, UniProt P62937); experiment: PPIase activity, α-chymotrypsin-coupled enzymatic assay; type: biochemical; details: 4° C., read-out: Kd determined by PPIase assay
Procedure: PPIase activity is assessed with the α-chymotrypsin-coupled enzymatic assay [Determination of kinetic constants for peptidyl cis-trans isomerase by an improved spectrophotometric assay (1 991); Kofron J L, Kuzmic P, Kishore V, Colon-Bonilla E and Rich D., Biochemistry 30, 6127–6134]. α-Chymotrypsin selectively hydrolyses the C-terminal p-nitroanilide bond of the substrate in the trans X-Pro conformer only. This hydrolysis releases a chromophore 4-nitroaniline, the accumulation of which is recorded by measuring the absorbance at 400 nm as a function of time. […] Substrate (stock solution of 100 mM) was dissolved in LiCl/TFE. The experiment took place at 4° C. Constant temperature was maintained within the cuvette by a Peltier (PTP-1) temperature control unit. A mini magnetic stirring system (telemoduel from Variomag)) was used for mixing the solution in the cuvette after the addition of the substrate. A Perkin Elmer UV/VIS Lambda 20 spectrophotometer was used.
The following materials were used: • Substrate: […] (Bachem AG) (N-succinyl-Ala-Ala-Pro-Phe-pnitroanilide) • Proteins: Cyp-A solution was freshly prepared before the experiment from frozen stock solution, at the appropriate concentration by dilution in buffer 50 mM Hepes, 100 mM NaCl pH=8.0. α-chymotrypsin (Sigma)
In a typical experiment 90 μl of 2.5–30 nM cyclophilin was made up to 2520 μl with buffer A in a 3 ml glass cuvette. The cuvette then was preincubated for 30 min on ice. Immediately before the assay, 300 μl of chymotrypsin solution (50 mg/ml in 10 mM HCl) was added, followed by 90 μl of a 3.7 mM stock solution of Suc-Ala-Ala-Pro-PNA in LiCl (470 mM)/TFE. The reaction progress was monitored by the absorbance change at 400 nm that accompanies the hydrolysis of the amide bond and the release of 4-nitroaniline product.

cyclophilin = cyclophilin (Homo sapiens, UniProt P62937); experiment: Binding studies, binding constant to cyclophilin
Sequence of cyclophilin (P62937 whole entry): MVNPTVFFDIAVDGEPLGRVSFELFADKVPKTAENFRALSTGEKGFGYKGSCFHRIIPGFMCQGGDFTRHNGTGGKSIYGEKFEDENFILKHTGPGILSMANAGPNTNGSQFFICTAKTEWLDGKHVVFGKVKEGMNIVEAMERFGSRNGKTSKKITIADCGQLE

Sequence of Cyp-A (P62937 whole entry): as above
Sequence of Cyclophilin A (P62937 whole entry): as above
Sequence of Cyp-D Wild-type (P30405 30-207): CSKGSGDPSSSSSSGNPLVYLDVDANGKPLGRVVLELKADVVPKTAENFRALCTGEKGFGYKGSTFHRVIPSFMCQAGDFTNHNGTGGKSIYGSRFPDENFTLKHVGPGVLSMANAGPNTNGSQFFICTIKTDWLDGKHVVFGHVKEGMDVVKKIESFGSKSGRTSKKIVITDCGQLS
Sequence of cyclophilin D (P30405 30-207): as above

Row | Compound | Kd (Cyp-D Wild-type) [µM] | Kd (Cyclophilin A) [µM] | Rotamase activity % Control (cyclophilin D; 50 μM) [% Control] | Rotamase activity % Control (cyclophilin D; 100 μM) [% Control] | Rotamase activity % Control (cyclophilin D; 200 μM) [% Control] | Kd (Cyp-A) [µM] | Kd (cyclophilin; read-out: binding constant (Kd) to cyclophilin, by way of comparison) [µM] | Kd (cyclophilin) [µM]
1 | COC(=O)[C@H](Cc1ccccc1)NC(=C1C(=O)CC(C)(C)CC1=O)C(NC(=O)OCc1ccccc1)C(C)C (stereo partly drawn) [EM 2/40, N-[1-(4,4-dimethyl-2,6-dioxocyclohexylidene)-2-benzyloxycarbonylamino-3-methylbutyl]phenylalanine methyl ester] | 110 | > 25000 | 96 | 100 | 59 |  |  | 
2 | CC(C)C[C@H](NC(=O)OCc1ccccc1)C(=O)OC1=CC(=O)CC(C)(C)C1 [EM 3/26/2/5, 3-(N-benzyloxycarbonyl-L-leucinyloxy)-5,5-dimethyl-2-cyclohexen-1-one] | 116 |  | 79 | 78 | 52 |  |  | 
3 | COC(=O)[C@@H](NC(=O)OCc1ccccc1)C(C)C [EM 3/27] |  |  | 111 | 96 | 60 |  |  | 
4 | CC(C)[C@H](NC(=O)OCc1ccccc1)C(=O)OC1=CC(=O)C(C)C(C)(C)C1 (stereo partly drawn) [EM 4/10/1] | 815 |  | 78 | 84.5 | 60 | 20 |  | 
5 | CC1(C)CC(=O)C=C(N)C1 [EM 4/12/2] | 107 |  | 104 | 106.5 | 98 |  |  | 
6 | CC(C)[C@H](NC(=O)OC(C)(C)C)C(=O)OC1=CC(=O)CC(C)(C)C1 [EM 3/29/1/1] | 362 |  | 107 | 77.5 | 50 |  |  | 
7 | COC(=O)[C@@H](NC1=CC(=O)CC(C)(C)C1)C(C)C [EM 3/22/1] | 103 | > 25000 | 110 | 102 | 63 |  |  | 
8 | CC(C)C(NC(=O)OCc1ccccc1)C(O)=C1C(=O)CC(C)(C)CC1=O (stereo not drawn) [EM 3/11/1, 1-(4,4-dimethyl-2,6-dioxocyclohexylidene)-2-benzyloxycarbonylamino-3-methylbutanol] | 203 | > 25000 | 109 | 102.5 | 61 |  |  | 
9 | CC(C)COC(=O)OC1=CC(=O)CC(C)(C)C1 [EM 3/48/2/1] |  | 130 |  |  |  |  |  | 
10 | CC(C)[C@H](NC(=O)OCc1ccccc1)C(=O)OC1=CC(=O)CC(C)(C)C1 [EM 2/34, 3-(N-benzyloxycarbonyl-L-valinyloxy)-5,5-dimethyl-2-cyclohexen-1-one] | 347 |  | 81 | 80 | 33 | 23 |  | ~1
11 | CC1(C)CC(=O)C=C(OC(=O)[C@H](Cc2ccccc2)NC(=O)OCc2ccccc2)C1 [EM 3/26/1/2] | 154 | > 25000 | 83 | 72.5 | 33 |  |  | 

Second part, the compound after the results:

Row | Kd (Cyp-D Wild-type) [µM] | Kd (Cyclophilin A) [µM] | Rotamase activity % Control (cyclophilin D; 50 μM) [% Control] | Rotamase activity % Control (cyclophilin D; 100 μM) [% Control] | Rotamase activity % Control (cyclophilin D; 200 μM) [% Control] | Kd (Cyp-A) [µM] | Kd (cyclophilin; read-out: binding constant (Kd) to cyclophilin, by way of comparison) [µM] | Kd (cyclophilin) [µM] | Compound
12 |  | 45 |  |  |  |  |  |  | COC(=O)CC1C(=O)CC(=O)CC1(C)C (stereo not drawn) [EM 4/35/1/1]
13 |  |  |  |  |  | 134 |  |  | CC1C(=O)CC(=O)CC1(C)C (racemic) [EM 4/33/1]
14 | 170 |  | 84 | 99 | 71 |  |  |  | CC1(C)CC(=O)CC(=O)C1Cc1ccccc1 (stereo not drawn) [EM 5/11]
15 |  | 68 |  |  |  |  |  |  | CC(C)[C@H](NC(=O)OCc1ccccc1)C(=O)OC1=CC(=O)C(C)(C)C(C)(C)C1 [EM 4/21/1]
16 |  | 85 |  |  |  |  |  |  | CC1(C)CC(=O)CC(=O)C1C/C=C/c1ccccc1 (stereo not drawn) [EM 5/12/3]
17 |  | 70 |  |  |  |  |  |  | COC(=O)N[C@H](C(=O)OC1=CC(=O)CC(C)(C)C1)C(C)C [EM 4/18/1]
18 |  |  |  |  |  |  | 22000 |  | CC1(C)CC(=O)CC(=O)C1 [dimedone, reference compound]
